{
  "source": "patent US6864076B2",
  "about": "“Antifungal proteins, DNA coding therefore, and hosts incorporating same” (Syngenta Mogen B.V., priority 1997, dated 2005)",
  "assay_in_all_cases": "Oxidase activity (4-AAP/peroxidase, H2O2 production at 510 nm), Michaelis-Menten kinetics with glucose",
  "key": {"[1]": {"target": "glucose oxidase (GOX) from Aspergillus niger (Sigma, G 2133) (Aspergillus niger, UniProt P13006)", "sequence (P13006 17-605)": "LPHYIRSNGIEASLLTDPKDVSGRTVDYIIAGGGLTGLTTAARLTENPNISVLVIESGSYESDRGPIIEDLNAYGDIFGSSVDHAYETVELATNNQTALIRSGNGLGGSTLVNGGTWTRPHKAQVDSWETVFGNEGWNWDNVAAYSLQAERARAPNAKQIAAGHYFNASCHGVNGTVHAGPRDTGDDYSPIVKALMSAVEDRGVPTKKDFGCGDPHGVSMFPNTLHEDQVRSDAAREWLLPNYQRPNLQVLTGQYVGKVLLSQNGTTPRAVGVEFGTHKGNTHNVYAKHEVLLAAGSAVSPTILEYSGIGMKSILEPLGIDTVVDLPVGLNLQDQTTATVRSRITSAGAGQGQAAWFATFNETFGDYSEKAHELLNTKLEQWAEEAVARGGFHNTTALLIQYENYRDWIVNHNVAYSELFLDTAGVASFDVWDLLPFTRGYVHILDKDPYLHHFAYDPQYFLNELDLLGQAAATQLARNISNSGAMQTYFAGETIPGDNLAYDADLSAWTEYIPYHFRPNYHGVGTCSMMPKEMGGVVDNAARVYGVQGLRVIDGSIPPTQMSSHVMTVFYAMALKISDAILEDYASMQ", "type": "biochemical", "details": "substrate glucose, 50 mM potassium phosphate pH 7.0, 25 μM FAD, 45 ng GOX per assay", "description": "(§1) Oxidase activity was measured utilizing the reagent 4-amino-antipyrine (4-AAP), based on Gallo, 1981 (Gallo, Methods in Enzymology, 71:665-668, 1981). A reaction volume of 500 μl contained 50 mM potassium phosphate buffer pH 7.0, 25 μM FAD, 10 mM NaN3, 0.01% Triton X-100, 6 mM 2,4,6,tribromohydroxybenzoic acid, 2 mM 4-AAP, and 10 units horseradish peroxidase. Hydrogenperoxide production was measured at 510 nm. Known amounts of hydrogen peroxide were included for calibration."}, "[2]": {"target": "T1, MS59 carbohydrate oxidase from sunflower (Helianthus annuus), SEQ ID NO: 16 (Helianthus annuus, UniProt A0A9K3EIF7)", "T1 sequence (A0A9K3EIF7 29-538)": "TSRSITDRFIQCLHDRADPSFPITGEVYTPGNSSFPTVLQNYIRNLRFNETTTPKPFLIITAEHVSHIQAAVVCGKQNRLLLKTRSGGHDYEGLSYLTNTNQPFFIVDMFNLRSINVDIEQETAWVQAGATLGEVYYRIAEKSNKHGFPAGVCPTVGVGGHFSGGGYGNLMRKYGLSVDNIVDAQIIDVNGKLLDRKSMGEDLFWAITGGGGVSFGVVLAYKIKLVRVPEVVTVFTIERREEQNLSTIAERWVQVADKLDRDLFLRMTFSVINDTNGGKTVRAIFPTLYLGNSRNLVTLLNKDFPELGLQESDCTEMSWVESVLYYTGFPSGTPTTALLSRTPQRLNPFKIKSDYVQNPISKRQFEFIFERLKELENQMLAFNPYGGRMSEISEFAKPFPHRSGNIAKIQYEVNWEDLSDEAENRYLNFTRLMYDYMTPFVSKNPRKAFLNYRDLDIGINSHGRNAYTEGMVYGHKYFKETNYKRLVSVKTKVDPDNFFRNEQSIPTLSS", "type": "biochemical, sunflower (Helianthus annuus cv. zebulon)", "details": "substrate glucose; 50 mM potassium phosphate pH 7.0, 25 μM FAD; 17 ng MS59 per assay; per mg protein", "description": "as §1"}, "[3]": {"target": "T2, WL64 carbohydrate oxidase from lettuce (Lactuca sativa), SEQ ID NO: 58 (Lactuca sativa, UniProt Q8SA60)", "T2 sequence (Q8SA60 28-540)": "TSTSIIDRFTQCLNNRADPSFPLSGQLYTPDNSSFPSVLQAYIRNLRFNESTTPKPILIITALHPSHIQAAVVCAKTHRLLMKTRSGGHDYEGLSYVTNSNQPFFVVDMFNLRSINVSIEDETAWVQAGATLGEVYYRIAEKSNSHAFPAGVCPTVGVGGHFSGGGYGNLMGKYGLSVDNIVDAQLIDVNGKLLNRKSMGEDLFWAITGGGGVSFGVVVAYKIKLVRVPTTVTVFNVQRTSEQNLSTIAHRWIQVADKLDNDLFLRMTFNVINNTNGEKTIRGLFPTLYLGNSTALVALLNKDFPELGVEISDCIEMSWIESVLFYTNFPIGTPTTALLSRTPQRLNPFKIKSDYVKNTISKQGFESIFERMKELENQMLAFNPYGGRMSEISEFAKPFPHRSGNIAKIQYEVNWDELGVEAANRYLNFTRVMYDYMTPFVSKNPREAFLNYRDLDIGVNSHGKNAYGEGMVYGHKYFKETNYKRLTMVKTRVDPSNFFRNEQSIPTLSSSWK", "type": "biochemical, lettuce (Lactuca sativa cv. Lollo bionda)", "details": "substrate glucose; 50 mM potassium phosphate pH 7.0, 25 μM FAD; 29 ng WL64 per assay; per mg protein", "description": "as §1"}},
  "data": [
    {"molecule": "OC[C@H]1OC(O)[C@H](O)[C@@H](O)[C@@H]1O", "note": "(stereo partly shown) [Glucose, glucose]", "values": [
      {"measurement": "Km", "setting": "[1]; Lineweaver-Burk", "value": 359, "unit": "µM"},
      {"measurement": "Vmax", "setting": "[1]; per mg protein", "value": 9.7, "unit": "μmolH2O2/min/mg"},
      {"measurement": "Vmax", "setting": "[2]", "value": 16.8, "unit": "μmolH2O2/min/mg"},
      {"measurement": "Vmax", "setting": "[3]", "value": 5.7, "unit": "μmolH2O2/min/mg"}
    ]}
  ]
}
